Target: T1, Aβ40 (Homo sapiens, UniProt P05067)
Test: not given
Settings: supplement, training set; 100 µM; cited from earlier work

T1 sequence (P05067 672-711 limits assumed): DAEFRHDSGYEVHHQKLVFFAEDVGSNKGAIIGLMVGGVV

First: O=C1C(/C=N/Nc2ccc(Cl)c(Cl)c2)=Nc2ccc(Br)cc21 [Compound S20]
Second: O=C1C(/C=N/Nc2ccc(Cl)cc2)=Nc2ccc(Br)cc21 [Compound S19]
The “% inhib. @ 100 µM” value of the first is lower: 23±2.3% for the first, 46±7.0% for the second.

O=C1Nc2ccc(O)cc2/C1=N/Nc1ccc(O)cc1 [Compound S50] and O=C1Nc2ccc(O)cc2/C1=N/Nc1ccccc1 [Compound S47] are within error of each other in “% inhib. @ 100 µM” value: 61±2% for the first, 62±3% for the second.

Compared with COc1ccc2c(c1)/C(=N/Nc1cccc(Cl)c1)C(=O)N2 [Compound S26], COc1ccc2c(c1)/C(=N/Nc1ccc(Cl)cc1)C(=O)N2 [Compound S27] is lower in “% inhib. @ 100 µM” value: 72±1% for the first, 43±2% for the second.

Compared with O=C1Nc2ccc(Br)cc2/C1=N/Nc1ccc(Cl)cc1 [Compound S44], O=C1Nc2ccc([N+](=O)[O-])cc2/C1=N/Nc1ccc(Cl)cc1 [Compound S45] is lower in “% inhib. @ 100 µM” value: 63±4% for the first, 12±2% for the second.

O=C1Nc2cc(Cl)c(F)cc2/C1=N/Nc1ccc(Cl)cc1 [Compound S43] and O=C1Nc2ccccc2/C1=N/Nc1ccc(Cl)cc1 [Compound S61] are within error of each other in “% inhib. @ 100 µM” value: 28±3.7% for the first, 24±4.9% for the second.

O=C1C(/C=N/Nc2ccc(Cl)cc2)=Nc2ccccc21 [Compound S13] and O=c1c(=NNc2ccc(Cl)cc2)c(=O)c2ccccc12 [Compound S7] are within error of each other in “% inhib. @ 100 µM” value: 33±1.0% for the first, 38±5.3% for the second.

Going from COc1ccc2c(c1)/C(=N/Nc1ccc(C(C)(C)C)cc1)C(=O)N2 [Compound S30] to COc1ccc2c(c1)/C(=N/Nc1cccc(C(C)(C)C)c1)C(=O)N2 [Compound S32], the “% inhib. @ 100 µM” value falls from 66±4% to 56±2%.

Going from COc1cc2c(cc1OC)/C(=N/Nc1ccccc1Cl)C(=O)N2 [Compound S37] to O=C1Nc2ccccc2/C1=N/Nc1ccccc1Cl [Compound S53], the “% inhib. @ 100 µM” value falls from 70±3% to 44±5%.

O=C1C(=CNNc2ccccc2)C(=O)c2ccccc21 [Compound S1] and Cc1ccc(NNC=C2C(=O)c3ccccc3C2=O)cc1 [Compound S2] are within error of each other in “% inhib. @ 100 µM” value: 49±2.0% for the first, 44±4.0% for the second.

Going from O=C1Nc2ccccc2/C1=N/Nc1cccc(F)c1 [Compound S42] to O=C1Nc2ccccc2/C1=N/Nc1cccc(Cl)c1 [Compound S60], the “% inhib. @ 100 µM” value falls from 52±0.9% to 39±5%.

Going from COc1ccc2c(c1)/C(=N/Nc1ccc(C)cc1)C(=O)N2 [Compound S28] to CC(C)c1ccc(N/N=C2\C(=O)Nc3ccccc32)cc1 [Compound S64], the “% inhib. @ 100 µM” value rises from 29±4% to 64±4%.

Compared with O=C1Nc2ccccc2/C1=N/Nc1ccc(OC(F)(F)F)cc1 [Compound S62], O=C1Nc2ccccc2/C1=N/Nc1cccc([N+](=O)[O-])c1 [Compound S63] is lower in “% inhib. @ 100 µM” value: 57±3% for the first, 29±1.2% for the second.

Same assay, conditions: supplement, training set; 100 µM; ± SD; cited from earlier work

For CC(C)c1ccc(N/N=C2\C(=O)Nc3c(Br)cccc32)cc1 [Compound S80], the “% inhib. @ 100 µM” value is given as 1±9.3%.

Same assay, conditions: supplement, training set; cited from earlier work

Going from O=C1C(/C=N/Nc2cccc(Cl)c2)=Nc2ccccc21 [Compound S12] to O=C1C(/C=N/Nc2cccc(Cl)c2)=Nc2ccc(Br)cc21 [Compound S18], the IC50 rises from 2.5 µM to 4.4 µM (1.8-fold). The first is the more potent here.

Going from O=C1Nc2cc(O)ccc2/C1=N/Nc1ccccc1 [Compound S51] to O=C1Nc2ccccc2/C1=N/Nc1ccc(O)cc1 [Compound S46], the IC50 falls from 22 µM to 9.3 µM (2.4-fold). The second is the more potent here.

Compared with CC(C)c1ccc(N/N=C2\C(=O)Nc3cc(O)c(O)cc32)cc1 [Compound S58], O=C1Nc2cc(O)c(O)cc2/C1=N/Nc1ccc(Cl)cc1 [Compound S57] is 11-fold higher in IC50: 1.6 µM for the first, 17 µM for the second.

First: O=C1C(/C=N/Nc2ccccc2Cl)=Nc2ccc(Br)cc21 [Compound S17]
Second: O=C1C(/C=N/Nc2ccccc2)=Nc2ccc(Br)cc21 [Compound S14]
The IC50 of the first is 4.5-fold lower: 7.8 µM for the first, 35 µM for the second.

First: O=C1Nc2cc(O)c(O)cc2/C1=N/Nc1ccccc1Cl [Compound S55]
Second: O=C1Nc2cc(O)c(O)cc2/C1=N/Nc1ccccc1 [Compound S54]
The IC50 of the first is 2.6-fold higher: 11 µM for the first, 4.3 µM for the second. The second is the more potent here.

First: CC(C)c1ccc(N/N=C2\C(=O)Nc3cc(O)ccc32)cc1 [Compound S52]
Second: CC(C)c1ccc(N/N=C2\C(=O)Nc3ccc(O)cc32)cc1 [Compound S49]
The IC50 of the first is 3.5-fold lower: 6 µM for the first, 21 µM for the second.

Compared with COc1ccc(N/N=C2\C(=O)Nc3ccc(OC)cc32)cc1 [Compound S33], COc1ccc2c(c1)/C(=N/Nc1ccc(C(C)(C)C)cc1)C(=O)N2 [Compound S30] is 4.1-fold higher in IC50: 3.7 µM for the first, 15 µM for the second. The first is the more potent here.

Compared with CC(C)c1ccc(N/N=C/C2=Nc3ccc(Br)cc3C2=O)cc1 [Compound S16], Cc1ccc(N/N=C/C2=Nc3ccc(Br)cc3C2=O)cc1 [Compound S15] is 2.2-fold higher in IC50: 23 µM for the first, 51 µM for the second.

O=C1Nc2cc(O)c(O)cc2/C1=N/Nc1ccc(O)cc1 [Compound S59] and O=C1Nc2ccc(O)cc2/C1=N/Nc1cccc(Cl)c1 [Compound S48] are within 1.5-fold of each other in IC50: 24 µM for the first, 18 µM for the second.

Compared with O=C1C(/C=N/Nc2ccccc2Cl)=Nc2ccccc21 [Compound S11], Cc1ccc(N/N=C/C2=Nc3ccccc3C2=O)cc1 [Compound S9] is 3.6-fold lower in IC50: 13 µM for the first, 3.6 µM for the second.

First: COc1ccc2c(c1)/C(=N/Nc1cccc3ccccc13)C(=O)N2 [Compound S87]
Second: COc1ccc(N/N=C2\C(=O)Nc3ccccc32)cc1 [Compound S21]
The IC50 of the first is 2.2-fold higher: 28 µM for the first, 13 µM for the second.

Compared with COc1ccc2c(c1)/C(=N/Nc1nc(-c3cccc(O)c3)cs1)C(=O)N2 [Compound S70], COc1ccc2c(c1)/C(=N/Nc1nc(-c3cccc(Br)c3)cs1)C(=O)N2 [Compound S72] is 2.5-fold higher in IC50: 16 µM for the first, 40 µM for the second. The first is the more potent here.

First: COc1ccc2c(c1)/C(=N/N=C/c1cccc(Cl)c1)C(=O)N2 [Compound S90]
Second: COc1ccc2c(c1)/C(=N/N=C/c1ccc(C(C)C)cc1)C(=O)N2 [Compound S89]
The IC50 of the first is 1.6-fold higher: 11 µM for the first, 6.7 µM for the second. The second is the more potent here.

Compared with Oc1ccc2[nH]cc(/C=N/Nc3ccc(Cl)cc3)c2c1 [Compound S92], CC(C)c1ccc(N/N=C/C2=Nc3ccccc3C2=O)cc1 [Compound S10] is 15-fold lower in IC50: 21 µM for the first, 1.4 µM for the second.

Compared with COc1ccc(N/N=C2\C(=O)Nc3cc(OC)c(OC)cc32)cc1 [Compound S41], COc1cc2c(cc1OC)/C(=N/Nc1ccc(Cl)cc1)C(=O)N2 [Compound S39] is 1.5-fold higher in IC50: 22 µM for the first, 33 µM for the second.

Going from COc1ccc2c(c1)/C(=N/Nc1nc(CCl)cs1)C(=O)N2 [Compound S67] to COc1cccc(-c2csc(N/N=C3\C(=O)Nc4ccc(OC)cc43)n2)c1 [Compound S71], the IC50 rises from 13 µM to 34 µM (2.6-fold).

O=C1C(=CNNc2cccc(Cl)c2)C(=O)c2ccccc21 [Compound S5] and O=C1C(=CNNc2ccc(Cl)cc2)C(=O)c2ccccc21 [Compound S6] are within 1.5-fold of each other in IC50: 18 µM for the first, 23 µM for the second.

Compared with COc1cc2c(cc1OC)/C(=N/Nc1cccc(Cl)c1)C(=O)N2 [Compound S38], COc1cc2c(cc1OC)/C(=N/Nc1ccccc1)C(=O)N2 [Compound S25] is 3.7-fold higher in IC50: 17 µM for the first, 63 µM for the second. The first is the more potent here.

Compared with O=C1C(=CNNc2ccccc2Cl)C(=O)c2ccccc21 [Compound S4], CC(C)c1ccc(NNC=C2C(=O)c3ccccc3C2=O)cc1 [Compound S3] is 1.8-fold lower in IC50: 32 µM for the first, 18 µM for the second. The second is the more potent here.

First: COc1ccc2c(c1)NC(=O)/C2=N\Nc1ccc(C(C)C)cc1 [Compound S36]
Second: COc1cc2c(cc1OC)/C(=N/Nc1ccc(C(C)C)cc1)C(=O)N2 [Compound S40]
The IC50 of the first is 1.6-fold higher: 7.1 µM for the first, 4.4 µM for the second. The second is the more potent here.

For COc1ccc2c(c1)/C(=N/N(C)c1ccc(C(C)C)cc1)C(=O)N2C [Compound S73], the IC50 is given as 11 µM.

Same assay, conditions: supplement; 100 µM; value marked (II); cited from earlier work

In the case of O=C1Nc2ccccc2/C1=N/Nc1ccccc1 [Compound S31], the “% inhib. @ 100 µM (II)” value is listed as 61±0.7%.

Target: T1, Aβ40
Test: Inhibition of Aβ40 self-aggregation (thioflavin T fluorescence, 2% HFIP)
Settings: not given

First: COc1ccc2[nH]cc(C=NNc3cccc(Cl)c3)c2c1 [Compound 31, 3-((2-(3-Chlorophenyl)hydrazineylidene)methyl)-5-methoxy-1H-indole]
Second: COc1ccc2[nH]cc(/C=N/Nc3ccc(Cl)cc3)c2c1 [Compound 33]
The IC50 of the first is 2.4-fold lower: 9.2 ± 0.7 µM for the first, 22 ± 2 µM for the second. The first is the more potent here.

Clc1cccc(N/N=C/c2c[nH]c3ccccc23)c1 [Compound 30] and CC(C)c1ccc(NN=Cc2c[nH]c3ccccc23)cc1 [Compound 28, 3-((2-(4-Isopropylphenyl)hydrazono)methyl)-1H-indole] are within 1.5-fold of each other in IC50: 13 ± 2 µM for the first, 18 ± 2 µM for the second.

First: COc1ccc2c(c1)C(=O)C(=O)N2CCCc1ccccc1 [Compound 12]
Second: O=C1Nc2ccccc2C1=NNc1ccc2ccccc2c1 [Compound 24, 3-(2-(Naphthalen-2-yl)hydrazono)indolin-2-one]
The IC50 of the first is 1.9-fold higher: 19 ± 4 µM for the first, 10 ± 2 µM for the second.

Going from Clc1c(C=NNc2ccccc2)[nH]c2ccc(Br)cc12 [Compound 40, 5-Bromo-3-chloro-2-((2-phenylhydrazineylidene)methyl)-1H-indole] to COc1ccc2[nH]cc(C=NNc3ccnc4cc(Cl)ccc34)c2c1 [Compound 36, 7-Chloro-4-(2-((5-methoxy-1H-indol-3-yl)methylene)hydrazineyl)quinoline], the IC50 falls from 25 ± 3 µM to 13 ± 1 µM (1.9-fold). The second is the more potent here.

Same assay, conditions: read-out: Aβ40 Aggregation Inhibition % at 100 μM

Compared with CC(C)c1ccc(NN=C2C(=O)N(C3CC3)c3ccc(O)cc32)cc1 [Compound 20, 1-Cyclopropyl-5-hydroxy-3-(2-(4-isopropylphenyl)hydrazono)indolin-2-one], CC(C)c1ccc(NN=Cc2[nH]c3ccc(Br)cc3c2Cl)cc1 [Compound 41, 5-Bromo-3-chloro-2-((2-(4-isopropylphenyl)hydrazineylidene)methyl)-1H-indole] is higher in inhibition at 100 µM: 26 ± 3% for the first, 63 ± 6% for the second.

First: COc1ccc2[nH]cc(C=NNc3ccc(C#N)cc3)c2c1 [Compound 29, 4-(2-((5-Methoxy-1H-indol-3-yl)methylene)hydrazineyl)benzonitrile]
Second: COc1ccc2[nH]cc(/C=N/NC(=O)c3ccc(F)cc3)c2c1 [Compound 45]
The inhibition at 100 µM of the first is higher: 56 ± 1% for the first, 0% for the second.

First: O=C1Nc2ccccc2C1=NNc1cccc2cccnc12 [Compound 25, 3-(2-(Quinolin-8-yl)hydrazineylidene)indolin-2-one]
Second: N/N=C1\C(=O)Nc2ccccc21 [Compound 2]
The inhibition at 100 µM of the first is higher: 63 ± 5% for the first, 17 ± 2% for the second.

Going from COc1ccc2c(c1)C(=O)C(=O)N2C1CC1 [Compound 14] to COc1ccc2c(c1)C(=O)C(=O)N2Cc1ccccc1 [Compound 10], the inhibition at 100 µM rises from 38 ± 5% to 52 ± 1%.

CC1(C)OC(=O)C(C=C2Nc3ccccc3C2=O)C(=O)O1 [Compound 44] gave an inhibition at 100 µM of 44 ± 1%.
